In patent US20120231470A1, “METHODS AND SYSTEMS ASSOCIATED WITH DETECTION OF FATTY ACID ELONGATION IN A CELL” (priority 2011, published 2012):

How the values were obtained:
[1] = system: fatty acid biosynthesis in B392 cells; experiment: High-throughput 96-well screen for fatty acid biosynthesis inhibitors; format: cell-based, Vibrio harveyi; settings: B392, 96-well plate; for Detection as fatty acid biosynthesis inhibitor in the high-throughput screen: FIG. 6; for Fluorescence ratio between non-treated cells and drug treated cells: C6N3 5 mM overnight, final drug concentrations 500, 50 or 5 μM, cerulenin at sub-bacteriostatic concentration
Protocol: In this example, a high-throughput cell-based antibiotic screen, which would identify fatty acid biosynthesis inhibitors, was implemented. B392 cells in a 96-well plate were treated with various concentrations of commercially available fatty acid biosynthesis inhibitors, including cerulenin (Ref. 8), bischloroanthrabenzoxocinone (Ref. 10), thiolactomycin (Ref. 11), and platensimycin (Ref. 2) as well as a number of arbitrarily chosen drugs (listed in TABLE 3).
In TABLE 3 above, rows of the 96-well plate are indicated by a letter and the columns are indicated by a number. Antibiotics labeled with a *, the wells contain 200× stocks of 10 mM and 1 mM of antibiotic in descending order. For bischloroanthrabenzoxocinone, thiolactomycin, and platensimycin, the wells only contain 200× stocks of 1 mM of antibiotic. For other antibiotics, the wells contain 200× stocks of 100 mM, 10 mM, and 1 mM of antibiotic in descending order.
B392 cells given no drug treatment served as the control. Cells were then fed with C6N3 and allowed to grow overnight. Extracellular C6N3 was washed away with 0.9% NaCl three times, and cellular lipids were click-reacted with 50 μM cyclooctyne-coumarin conjugate for 30 minutes at 37° C. Non-reacted cyclooctyne-coumarin conjugate was washed away with 0.9% NaCl three times, and cells were re-suspended in 0.9% NaCl to be analyzed by plate reader. […]. It should be noted that the same method described here in Example 3 can be used to identify compounds which enhance fatty acid biosynthesis. […].
In particular, B392 cells were grown in 150 mL cultures of synthetic media (Ref. 9) until OD 0.3 was reached. Cells were transferred (1 mL of the culture loaded into each well) to a 2 mL 96-well plate via a multi-pipette robot (this robot was used for most liquid transfers mentioned in this example). To each well, 5 μL of antibiotic from a 200× stock antibiotic plate in DMSO (TABLE 3) was introduced to create final treatment concentrations of 500 μM, 50 μM, and 5 μM. After 30 minutes, 10 μL of 500 mM C6N3 in DMSO was introduced to each well for a final treatment concentration of 5 mM. Cells were grown overnight, then spun down at 2000 g for 10 minutes. Supernatant was removed, and then non-incorporated C6N3 was washed from cells three times by re-suspending the cells in 1 mL of 0.9% NaCl, spinning the cells down at 2000 g for 10 minutes, and removing the supernatant. The cells were re-suspended in 200 μL of 50 μM cyclooctyne-coumarin conjugate in 0.9% NaCl and incubated at 37° C. for 30 minutes. Cells were collected and washed three more times with 1 mL of 0.9% NaCl to remove non-reacted cyclooctyne-coumarin conjugate, and cells re-suspended in 400 μL of 0.9% NaCl were analyzed by plate reader for fluorescence (excitation 380 nm, detection 500 nm) and cell density.

[2] = known (Ref 10); cited from earlier work
[3] = system: fatty acid elongation in V. harveyi B392; experiment: C6N3 incorporation/elongation assay, cyclooctyne-coumarin labeling, flow cytometry; format: cell-based, Vibrio harveyi; settings: C6N3 5 mM + cerulenin 10 μg/mL
Protocol: (§1) In particular, the cells were grown in 5 mL of synthetic media (Ref 9), and at OD 0.2, cerulenin was introduced to appropriate samples for a final treatment concentration of 10 μg/mL (sub-bacteriostatic). Then, at OD 0.3, C6N3 was introduced to appropriate samples for a final treatment concentration of 5 mM. After allowing the cells to grow in presence of C6N3 for 5 hours, the cells were spun down at 5000 g for 10 minutes, and the supernatant was removed. Non-incorporated C6N3 was washed from cells three times by re-suspending the cell pellet in 10 mL of 0.9% NaCl, spinning the cells down at 5000 g for 10 minutes, and removing the supernatant. The cells were re-suspended in 1 mL of 50 μM cyclooctyne-coumarin conjugate in 0.9% NaCl and incubated at 37° C. for 30 minutes. Cells were collected and washed three more times with 10 mL of 0.9% NaCl to remove non-reacted cyclooctyne-coumarin conjugate, and cells re-suspended in 2 mL of 0.9% NaCl were analyzed by plate reader (excitation 380 nm, detection 500 nm) or flow cytometry (excitation 407 nm, detection 450/40 bandpass filter).
(§2) In addition, the samples were analyzed by flow cytometry (FIG. 4)

[4] = system: fatty acid elongation in V. harveyi CY1723; experiment: as above; format: cell-based, Vibrio harveyi; settings: C6N3 5 mM + cerulenin 10 μg/mL
Protocol: as §1, §2

[5] = system: fatty acid elongation in V. harveyi strain CY1723; experiment: C6N3 incorporation/elongation assay, cyclooctyne-coumarin labeling, plate reader; format: cell-based, Vibrio harveyi; settings: C6N3 5 mM + cerulenin 10 μg/mL
Protocol: as §1, with “the supernatant. […] The cells” for “the supernatant. The cells”, “conjugate, and a fraction of the cells re-suspended” for “conjugate, and cells re-suspended”
In particular, the cells were grown in 5 mL of synthetic media (Ref 9), and at OD 0.2, cerulenin was introduced to appropriate samples for a final treatment concentration of 10 μg/mL (sub-bacteriostatic). […]

[6] = system: fatty acid elongation in Vibrio harveyi strain B392; experiment: as above; format: cell-based
Protocol: as §1, with “the supernatant. […] The cells” for “the supernatant. The cells”, “conjugate, and a fraction of the cells re-suspended” for “conjugate, and cells re-suspended”
as §1

COc1cc(C)c2c(c1)O[C@]1(C)Cc3cc4c(c(O)c3[C@H]2O1)C(=O)c1c(O)c(Cl)c(O)c(Cl)c1C4(C)C [Bischloroanthrabenzoxocinone]
Detection as fatty acid biosynthesis inhibitor in the high-throughput screen [1]: not detected
Cell permeability [2]: poor cell permeability

C/C=C/C/C=C/CCC(=O)[C@H]1O[C@H]1C(N)=O [cerulenin, Cerulenin]
Mean fluorescence [3]: 2347
Ratio (mean fluorescence of Entry 1 divided by mean fluorescence of the sample) [3]: 8.06
Mean fluorescence [4]: 1704
Ratio (mean fluorescence of Entry 1 divided by mean fluorescence of the sample) [4]: 11.09
Ratio (fluorescence/OD of Entry 1 divided by fluorescence/OD of the sample) [5]: 11.99
Fluorescence/OD ([5]; 5 hours): 44069
Fluorescence ratio between non-treated cells and drug treated cells [1]: ~4.5
Detection as fatty acid biosynthesis inhibitor in the high-throughput screen [1]: can be detected
Fluorescence/OD ([6]; B392, C6N3 5 mM + cerulenin 10 μg/mL, 5 hours, plate reader): 45609
Ratio (fluorescence/OD of Entry 1 divided by fluorescence/OD of the sample) ([6]; B392, C6N3 5 mM + cerulenin 10 μg/mL, plate reader): 11.58
Fold decrease in fluorescence of cerulenin-treated culture compared to the same culture untreated ([6]; B392, C6N3 5 mM, cerulenin 10 μg/mL, FIG. 3): about seven-fold
Inhibition of fatty acid biosynthesis / azide incorporation in lipids ([6]; B392 and CY1723 cells treated with C6N3 and cerulenin, TABLES 1 and 2): inhibited fatty acid biosynthesis efficiently

CC12C[C@@]34C=CC(=O)[C@@](C)(CCC(=O)Nc5c(O)ccc(C(=O)O)c5O)C3[C@H](CC1C4)O2 (stereo partly drawn) [platensimycin, Platensimycin]
Fluorescence ratio between non-treated cells and drug treated cells [1]: ~2.6
Detection as fatty acid biosynthesis inhibitor in the high-throughput screen [1]: can be detected

C=C/C(C)=C/[C@@]1(C)SC(=O)C(C)=C1O [thiolactomycin, Thiolactomycin]
Fluorescence ratio between non-treated cells and drug treated cells [1]: ~4.0
Detection as fatty acid biosynthesis inhibitor in the high-throughput screen [1]: can be detected
